Target: cellular IDO1 in HeLa cells (Homo sapiens (Human), UniProt P14902)
Assay: HeLa Cell-Based IDO1 Kyn (Kynurenine) Production Assay
Settings: IFN-γ induced IDO1, 48 hours incubation, Kyn absorbance at 480 nm
Summary of the method: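 Compounds added to HeLa cells together with IFN-γ (100 ng/mL final) and 0.4 mM L-Trp, 48 h at 37 °C. Kynurenine in TCA-deproteinized supernatant measured colorimetrically with 4-(dimethylamino)benzaldehyde at 480 nm; IC50 from four-parameter logistic fit.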

Sequence of cellular IDO1 in HeLa cells (P14902 whole entry): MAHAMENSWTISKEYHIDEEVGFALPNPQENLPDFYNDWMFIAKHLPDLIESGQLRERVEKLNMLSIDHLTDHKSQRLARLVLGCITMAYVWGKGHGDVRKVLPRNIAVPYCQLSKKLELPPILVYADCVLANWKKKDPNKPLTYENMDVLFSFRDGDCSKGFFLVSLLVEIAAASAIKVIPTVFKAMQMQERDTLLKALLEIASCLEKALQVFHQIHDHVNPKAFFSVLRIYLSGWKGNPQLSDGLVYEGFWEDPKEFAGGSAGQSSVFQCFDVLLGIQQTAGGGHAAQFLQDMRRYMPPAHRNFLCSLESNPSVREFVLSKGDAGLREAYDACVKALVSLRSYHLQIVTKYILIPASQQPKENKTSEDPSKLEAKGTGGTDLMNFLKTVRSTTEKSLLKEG

Structure (SMILES)	EC50 [nM]
C[C@@H](c1nc2ccc(C3=NCCO3)cc2[nH]1)[C@H]1CC[C@@H](c2ccnc3ccc(F)cc32)CC1 [Example B197, 2-(2-((R)-1-((1s,4S)-4-(6-fluoroquinolin-4-yl)cyclohexyl)ethyl)-1H-benzo[d]imidazol-6-yl)-4,5-dihydrooxazole]	8.1
COC(=O)c1c(F)ccc2[nH]c([C@@H](C)[C@H]3CC[C@@H](c4ccnc5ccc(F)cc54)CC3)nc12 [Example B198, methyl 5-fluoro-2-((S)-1-((1s,4R)-4-(6-fluoroquinolin-4-yl)cyclohexyl)ethyl)-1H-benzo[d]imidazole-4-carboxylate]	984
COC(=O)c1c(F)ccc2[nH]c([C@H](C)[C@H]3CC[C@@H](c4ccnc5ccc(F)cc54)CC3)nc12 [Example B199, methyl 5-fluoro-2-((R)-1-((1s,4S)-4-(6-fluoroquinolin-4-yl)cyclohexyl)ethyl)-1H-benzo[d]imidazole-4-carboxylate]	21.9
CCOC(=O)c1cc2nc([C@@H](C)C3CCC(c4ccnc5ccc(F)cc45)CC3)[nH]c2cc1C (stereo partly drawn) [Example B200, ethyl 2-((S)-1-((1s,4S)-4-(6-fluoroquinolin-4-yl)cyclohexyl)ethyl)-6-methyl-1H-benzo[d]imidazole-5-carboxylate]	73.3
CCOC(=O)c1cc2nc([C@H](C)[C@H]3CC[C@@H](c4ccnc5ccc(F)cc54)CC3)[nH]c2cc1C [Example B201, ethyl 2-((R)-1-((1s,4S)-4-(6-fluoroquinolin-4-yl)cyclohexyl)ethyl)-6-methyl-1H-benzo[d]imidazole-5-carboxylate]	1.6
CC(=O)c1ccc2nc([C@H](C)[C@H]3CC[C@@H](c4ccnc5ccc(F)cc54)CC3)[nH]c2c1 [Example B202, 1-(2-((R)-1-((1s,4S)-4-(6-fluoroquinolin-4-yl)cyclohexyl)ethyl)-1H-benzo[d]imidazol-6-yl)ethan-1-one]	2.9
CC(c1nc2cc(F)c(F)c(Cl)c2[nH]1)[C@H]1CC[C@@H](c2ccnc3ccc(F)cc32)CC1 (stereo partly shown) [Example B203, 4-((1s,4s)-4-(1-(7-chloro-5,6-difluoro-1H-benzo[d]imidazol-2-yl)ethyl)cyclohexyl)-6-fluoroquinoline]	8.8
C[C@@H](c1nc2c(F)cc(F)c(Cl)c2[nH]1)[C@H]1CC[C@@H](c2ccnc3ccc(F)cc32)CC1 [Example B204, 4-((1R,4s)-4-((S)-1-(7-chloro-4,6-difluoro-1H-benzo[d]imidazol-2-yl)ethyl)cyclohexyl)-6-fluoroquinoline]	6.79
C[C@@H](c1nc2c(F)cc(F)c(Cl)c2[nH]1)[C@H]1CC[C@H](c2ccnc3ccc(F)cc32)CC1 [Example B205, 4-((1R,4r)-4-((R)-1-(7-chloro-4,6-difluoro-1H-benzo[d]imidazol-2-yl)ethyl)cyclohexyl)-6-fluoroquinoline]	28.9
Cc1cc(C(=O)NC2CCC2)cc2[nH]c(C(C)C3CCC(c4ccnc5ccc(F)cc45)CC3)nc12 (stereo not shown) [Example B206, N-cyclobutyl-2-(1-(4-(6-fluoroquinolin-4-yl)cyclohexyl)ethyl)-4-methyl-1H-benzo[d]imidazole-6-carboxamide]	27.1
COC(=O)c1ccc(C(F)(F)F)c2[nH]c(C(C)[C@H]3CC[C@@H](c4ccnc5ccc(F)cc54)CC3)nc12 (stereo partly shown) [Example B207]	18.4
COC(=O)c1cccc2[nH]c([C@H](C)[C@H]3CC[C@@H](c4ccnc5ccc(F)cc54)CC3)nc12 [Example B210, methyl 2-((R)-1-((1s,4S)-4-(6-fluoroquinolin-4-yl)cyclohexyl)ethyl)-1H-benzo[d]imidazole-4-carboxylate]	26.6
C[C@H](c1nc2c(ccc3ccccc32)[nH]1)[C@H]1CC[C@@H](c2ccnc3ccc(F)cc32)CC1 [Example B211, 2-((S)-1-((1s,4R)-4-(6-fluoroquinolin-4-yl)cyclohexyl)ethyl)-3H-naphtho[1,2-d]imidazole]	1.3
C[C@@H](c1nc2c(ccc3ccccc32)[nH]1)[C@H]1CC[C@H](c2ccnc3ccc(F)cc32)CC1 [Example B212, 2-((R)-1-((1r,4R)-4-(6-fluoroquinolin-4-yl)cyclohexyl)ethyl)-3H-naphtho[1,2-d]imidazole]	27.9
COCCNC(=O)c1ccc2[nH]c(C(C)[C@H]3CC[C@@H](c4ccnc5ccc(F)cc54)CC3)nc2c1 (stereo partly shown) [Example B216, 2-(1-((1s,4s)-4-(6-fluoroquinolin-4-yl)cyclohexyl)ethyl)-N-(2-methoxyethyl)-1H-benzo[d]imidazole-5-carboxamide]	62.9
Cc1noc(-c2ccc3[nH]c(C(C)[C@H]4CC[C@@H](c5ccnc6ccc(F)cc65)CC4)nc3c2)n1 (stereo partly shown) [Example B217]	1.2
Cc1noc(-c2ccc3nc([C@H](C)[C@H]4CC[C@@H](c5ccnc6ccc(F)cc65)CC4)[nH]c3c2)n1 [Example B220, 5-(2-((R)-1-((1s,4S)-4-(6-fluoroquinolin-4-yl)cyclohexyl)ethyl)-1H-benzo[d]imidazol-6-yl)-3-methyl-1,2,4-oxadiazole]	0.96

Structure (SMILES)	EC50 [nM]
Fc1ccc2nccc([C@H]3CC[C@H](c4nc5cc(Cl)ccc5[nH]4)CC3)c2c1 [Example C2a, 4-((1r,4r)-4-(5-chloro-1H-benzo[d]imidazol-2-yl)cyclohexyl)-6-fluoroquinoline]	74
Fc1ccc2nccc([C@H]3CC[C@@H](c4nc5cc(Cl)ccc5[nH]4)CC3)c2c1 [Example C2b, 4-((1s,4s)-4-(5-chloro-1H-benzo[d]imidazol-2-yl)cyclohexyl)-6-fluoroquinoline]	11
Cc1ccc2[nH]c(C3CCC(c4ccnc5ccc(F)cc45)CC3)nc2c1 (stereo not shown) [Example C3, 6-fluoro-4-(4-(5-methyl-1H-benzo[d]imidazol-2-yl)cyclohexyl)quinoline]	16
Fc1ccc2nccc(C3CCC(c4nc5cc(Br)ccc5[nH]4)CC3)c2c1 (stereo not shown) [Example C4, 4-(4-(5-bromo-1H-benzo[d]imidazol-2-yl)cyclohexyl)-6-fluoroquinoline]	9.1
Fc1ccc2[nH]c([C@H]3CC[C@H](c4ccnc5ccc(F)cc54)CC3)nc2c1 [Example C5a, 6-fluoro-4-((1r,4r)-4-(5-fluoro-1H-benzo[d]imidazol-2-yl)cyclohexyl)quinoline]	1430
Fc1ccc2[nH]c([C@H]3CC[C@@H](c4ccnc5ccc(F)cc54)CC3)nc2c1 [Example C5b, 6-fluoro-4-((1s,4s)-4-(5-fluoro-1H-benzo[d]imidazol-2-yl)cyclohexyl)quinoline]	73
Fc1ccc2nccc([C@H]3CC[C@@H](c4nc5cc(C6CC6)ccc5[nH]4)CC3)c2c1 [Example C6b, 4-((1s,4s)-4-(5-cyclopropyl-1H-benzo[d]imidazol-2-yl)cyclohexyl)-6-fluoroquinoline]	14
Fc1ccc2nccc([C@H]3CC[C@H](c4nc5cc(F)c(F)cc5[nH]4)CC3)c2c1 [Example C7a, 4-((1r,4r)-4-(5,6-difluoro-1H-benzo[d]imidazol-2-yl)cyclohexyl)-6-fluoroquinoline]	1360
Fc1ccc2nccc([C@H]3CC[C@@H](c4nc5cc(F)c(F)cc5[nH]4)CC3)c2c1 [Example C7b, 4-((1s,4s)-4-(5,6-difluoro-H-benzo[d]imidazol-2-yl)cyclohexyl)-6-fluoroquinoline]	70
COC(=O)c1ccc2[nH]c([C@H]3CC[C@H](c4ccnc5ccc(F)cc54)CC3)nc2c1 [Example C8a, methyl 2-((1r,4r)-4-(6-fluoroquinolin-4-yl)cyclohexyl)-1H-benzo[d]imidazole-5-carboxylate]	1200
COC(=O)c1ccc2[nH]c([C@H]3CC[C@@H](c4ccnc5ccc(F)cc54)CC3)nc2c1 [Example C8b, methyl 2-((1s,4s)-4-(6-fluoroquinolin-4-yl)cyclohexyl)-1H-benzo[d]imidazole-5-carboxylate]	37
NC(=O)c1ccc2[nH]c([C@H]3CC[C@H](c4ccnc5ccc(F)cc54)CC3)nc2c1 [Example C9a, 2-((1r,4r)-4-(6-fluoroquinolin-4-yl)cyclohexyl)-1H-benzo[d]imidazole-5-carboxamide]	> 10000
NC(=O)c1ccc2[nH]c([C@H]3CC[C@@H](c4ccnc5ccc(F)cc54)CC3)nc2c1 [Example C9b, 2-((1s,4s)-4-(6-fluoroquinolin-4-yl)cyclohexyl)-1H-benzo[d]imidazole-5-carboxamide]	1240
Fc1ccc2nccc(C3CCC(CCc4nc5cc(C6CC6)ccc5[nH]4)CC3)c2c1 (stereo not shown) [Example C10, 4-(4-(2-(5-cyclopropyl-1H-benzo[d]imidazol-2-yl)ethyl)cyclohexyl)-6-fluoroquinoline]	7
Fc1ccc2nccc([C@H]3CC[C@@H](CCc4nc5cc(Cl)ccc5[nH]4)CC3)c2c1 [Example C11, 4-((1r,4r)-4-(2-(5-chloro-1H-benzo[d]imidazol-2-yl)ethyl)cyclohexyl)-6-fluoroquinoline]	12
Clc1ccc2nc(C3CC4CC3CC4c3ccccc3)[nH]c2c1 (stereo not shown) [Example D1, 6-chloro-2-(5-phenylbicyclo[2.2.1]heptan-2-yl)-1H-benzo[d]imidazole]	1090
Clc1ccc2[nH]c(CCC3CC4CC3CC4c3ccccc3)nc2c1 (stereo not shown) [Example D2, 5-chloro-2-(2-(5-phenylbicyclo[2.2.1]heptan-2-yl)ethyl)-1H-benzo[d]imidazole]	69
